Test results taken from patent US11541019B2, “Compositions for use in the treatment of diabetes” (University of Ulster, priority 2015, dated 2023).
Like-named read-outs stand apart in the source and are kept apart here.

Experiments:
NIH Swiss mice = assay: Acute effects on plasma glucose and insulin after oral glucose load; type: in vivo; settings: for circulating (plasma) glucose after glucose load / plasma insulin (insulin release) after glucose load: high fat fed mice, oral 50 μmol/kg with glucose 18 mmol/kg
Procedure: Adult male (20-22 week) NIH Swiss mice (Harlan UK Ltd) were individually housed in an air-conditioned room at 22±2° C. with 12 hour light: 12 hour darkness cycles. […] Non-fasted NIH Swiss mice (n=6) received an oral injection of glucose alone (18 mmol/kg body weight) or in combination with compositions of the present invention (50 μmol/kg body weight). Blood samples were obtained from the cut tip from tail vein of conscious mice and centrifuged at 13,000 rpm for 3 minutes at 4° C. Plasma glucose was measured by an automated glucose oxidase procedure using a Beckman glucose analyser and insulin determined by radioimmunoassay. All animal experiments were carried out in accordance with the UK Animal (Scientific Procedures) Act 1986.

BRIN-BD11 cells [1] = assay: LDH release from BRIN-BD11 cells as indicator of cytotoxicity; type: cell-based
Procedure: (§1) Insulin-secreting BRIN-BD11 cells were cultured with RPMI-1640 media (11.1 mM glucose) containing antibiotics (100 U/ml penicillin and 0.1 mg/ml streptomycin) and 10% foetal calf serum at 37° C. in an atmosphere of 95% air and 5% carbon dioxide. For acute insulin secretion studies, cells were detached using trypsin/EDTA and incubated overnight in 24 well plates with 150,000 cells per well. Cells were then pre-incubated for 40 minutes at 1.1 mmol/l glucose in Krebs buffer (comprising 4.7 mmol/l KCL, 115 mmol/l NaCl, 1.28 mmol/CaCl2, 10 mmol/l NaHCO3, 5 g/l BSA, 1.2 mmol/l KH2PO4, 1.2 mmol/l MgSO47H2O pH 7.4). Test incubations were then performed at 37° C. for 20 minutes. DIM, indole-3-carbinol, embelin, [6]-gingerol, and [6]-shogaol at 10^−12-10^−4 mol/L were tested at both 5.6 mmol/L and 16.7 mmol/L glucose, as indicated in the accompanying drawings. Supernatants were removed, evaluated for lactate dehydrogenase (LDH) release as an indicator of cytotoxicity (as per manufacturer's protocol) or frozen at −20° C. until determination of insulin by radioimmunoassay.

[2] = system: high fat fed diabetic NIH Swiss mice; assay: Long-term daily oral administration in high fat fed diabetic mice; type: in vivo; settings: for pancreatic insulin content: HFF model; for plasma insulin following oral glucose / plasma glucose following a glucose load: after long-term daily administration; for plasma glucose following a glucose load: glucose 18 mmol/kg; for increase in circulating GLP-1: at 30 min after oral glucose, long term study; for plasma GLP-1: at the end of the study; for insulin sensitivity: insulin 25 U/kg; for body weight: daily oral for 21 days; for non-fasting plasma insulin: after 21 days; for decrease in plasma glucose, area under the curve: over 21 days; for GLP-1 secretion: over the long term study, after oral glucose
Procedure: […] In order to confirm diabetes, an oral glucose tolerance test (OGTT) was performed. Food intake, fluid intake, body weight, non-fasted plasma glucose and insulin concentrations were monitored every 2- to 4-days as indicated in the accompanying drawings. At the end of the study, glucose tolerance (18 mmol/kg body weight) and insulin sensitivity (25 U/kg body weight) were assessed. Mice were anesthetised by isoflurane and killed by cervical dislocation. Dual energy X-ray absorption (DEXA) scanning was performed after prior calibration and quality control with the aluminium/lucite phantom (0.069 g/cm2, 12.0% fat) using a PIXImus system (software version 1.4x).

BRIN-BD11 cells [3] = assay: cAMP production in BRIN-BD11 cells (enzyme immunoassay); type: cell-based; settings: 11.1 mM glucose, 20 min
Procedure: (§2) For intracellular Ca2+ measurement, monolayers of BRIN-BD11 cells were seeded overnight at a density of 80,000 cells per well in a 96-well black walled clear bottom plate. Cells were washed with 100 μl of Krebs buffer and incubated for 1 hour with Flex calcium assay kit reagent at 37° C. GPR84 at 10^−4 mol/L were added at 5.6 mmol/L and 16.7 mmol/L glucose. Fluorometric data were obtained using the FLEX Station scanner and test solutions were transferred using fluid transfer workstation at a wavelength of 525 nm (Molecular Devices). For cAMP determination, BRIN-BD11 cells were seeded in a 96-well plate at a density of 30,000 cells per well. Cells were washed with 300 μl Krebs buffer for 40 min and 150 μl of compositions of the present invention at 10^−10-10^−4 mol/L were tested at […] glucose. After 20 minutes, test solutions were removed and 0.1M HCL (150 μL) was added to lyse the cells. Total cAMP production in the cell supernatants were measured using cAMP enzyme immunoassay kit according to the manufacturer's protocol (Sigma, Poole, UK).

BRIN-BD11 cells [4] = assay: Intracellular Ca2+ in BRIN-BD11 cells (Flex calcium assay kit); type: cell-based; settings: 10^−4 mol/L, 16.7 mM glucose
Procedure: as §2

BRIN-BD11 cells [5] = assay: Acute insulin secretion from clonal BRIN-BD11 cells (radioimmunoassay); type: cell-based; settings: for concentrations that enhanced insulin release: tested 10^−12-10^−4 mol/L; for EC50: Rattus norvegicus, BRIN-BD11, 20 min, 20 min incubation, read-out: EC50 of enhanced insulin release
Procedure: as §1

[6] = high fat fed mice, daily administration
[7] = 5.6 mM or 16.7 mM glucose, not separated at the place

Compound | circulating (plasma) glucose after glucose load (NIH Swiss mice) | plasma insulin (insulin release) after glucose load (NIH Swiss mice) | cytotoxicity (LDH release) (BRIN-BD11 cells [1]; 5.6 mM glucose) | cytotoxicity (LDH release) (BRIN-BD11 cells [1]; 16.7 mM glucose) | pancreatic insulin content ([2]; daily administration) | plasma insulin following oral glucose ([2]; high fat fed mice) | plasma glucose following a glucose load ([2]; high fat fed mice) | increase in circulating GLP-1 ([2]; high fat fed mice) | plasma GLP-1 ([2]; high fat fed mice) | total body fat (DEXA) [2, 6] | insulin sensitivity [2, 6] | body weight ([2]; high fat fed mice) | non-fasting plasma insulin ([2]; high fat fed mice, daily oral) | decrease in plasma glucose, area under the curve ([2]; high fat fed mice, daily oral) | cAMP production / involvement of cAMP pathway (BRIN-BD11 cells [3]) | intracellular Ca2+ concentrations (BRIN-BD11 cells [4]) | concentrations that enhanced insulin release (BRIN-BD11 cells [5]; 5.6 mM glucose) | concentrations that enhanced insulin release (BRIN-BD11 cells [5]; 16.7 mM glucose) | EC50 (BRIN-BD11 cells [5]; 5.6 mM basal glucose) | EC50 (BRIN-BD11 cells [5]; 16.7 mM stimulatory glucose) | further results
c1ccc2c(Cc3c[nH]c4ccccc34)c[nH]c2c1 [Diindolylmethane, 3,3′-methanediylbis(1H-indole)] | decreased circulating glucose | increase in insulin release | No cytotoxicity | No cytotoxicity | reduced pancreatic insulin content | decreased plasma insulin | attenuated | 61% | raised | decreased body fat | decreased | decreased body weight after 15 days | augmented | 18% | involves the cAMP-dependent pathway | increased intracellular Ca2+ concentrations | 10^−8-10^−4 mol/L | 10^−9-10^−4 mol/L | 0.13 µM | 1 µM | energy intake ([2]; high fat fed mice, daily oral): decreased energy intake; fluid intake ([2]; high fat fed mice, daily oral): no effect on fluid intake; non-fasting plasma glucose ([2]; high fat fed mice, daily oral, at 21 days): decrease in plasma glucose; GLP-1 secretion ([2]; high fat fed mice): increased GLP-1 secretion
CCCCCCCCCCCC1=C(O)C(=O)C=C(O)C1=O [Embelin, 2,5-dihydroxy-3-undecylcyclohexa-2,5-diene-1,4-dione] | decreased circulating glucose | increase in insulin release | No cytotoxicity | No cytotoxicity | reduced pancreatic insulin content | decreased plasma insulin | significantly decreased | 45% | raised | no change in total body fat | decreased | no effect on body weight | augmented | 17% | involves the cAMP-dependent pathway | increased intracellular Ca2+ concentrations | 10^−9-10^−4 mol/L | 10^−10-10^−4 mol/L | 0.73 µM | 0.21 µM | low-density lipoprotein (LDL) cholesterol [2, 6]: reduced; total cholesterol [2, 6]: reduced; non-fasting plasma glucose ([2]; high fat fed mice, daily oral, after 9 days of treatment): significant decrease in plasma glucose; GLP-1 secretion ([2]; high fat fed mice): increased GLP-1 secretion
OCc1c[nH]c2ccccc12 [Indole-3-carbinol, 1H-Indol-3-ylmethanol] | significantly decreased | – | – | – | – | – | – | – | – | – | – | – | – | – | – | – | 10^−7-10^−4 mol/L | 10^−6-10^−4 mol/L | 1.5 µM | 0.4 µM | cytotoxicity (LDH release) (BRIN-BD11 cells [1]; [7]): No cytotoxicity
CCCCC[C@H](O)CC(=O)CCc1ccc(O)c(OC)c1 [[6]-gingerol, (5S)-5-hydroxy-1-(4-hydroxy-3-methoxyphenyl)decan-3-one] | – | – | – | – | – | – | – | – | – | – | – | – | – | – | – | – | 10^−8-10^−4 mol/L | 10^−8-10^−4 mol/L | 1.9 µM | 2.8 µM | plasma glucose after glucose load (NIH Swiss mice; NIH Swiss mice, diet not separated (normal chow and high fat), oral with glucose 18 mmol/kg): significant decrease; cytotoxicity (LDH release) (BRIN-BD11 cells [1]; [7]): No cytotoxicity
CCCCC/C=C/C(=O)CCc1ccc(O)c(OC)c1 [[6]-shogaol, (E)-1-(4-hydroxy-3-methoxyphenyl)dec-4-en-3-one] | – | – | – | – | – | – | – | – | – | – | – | – | – | – | act through the cAMP pathway | increased intracellular Ca2+ concentrations | – | – | – | – | –
